# Data published in ChEMBL document CHEMBL4190265, “Structural optimization elaborates novel potent Akt inhibitors with promising anticancer activity” (Eur J Med Chem, 2017).
# Columns and labels:
# [1] = target: RAC-alpha serine/threonine-protein kinase (Homo sapiens, UniProt P31749); assay: Inhibition of AKT1 (unknown origin) using biotinylated-STK as substrate after 45 mins by HTRF assay
# [2] = system: Z-138; assay: Antiproliferative activity against human Z138 cells after 72 hrs by CellTiter Glo assay; format: functional, cell-based; conditions: Z-138, 72 h
# [3] = system: JeKo-1; assay: Antiproliferative activity against human JeKo1 cells after 72 hrs by CellTiter Glo assay; format: functional, cell-based; conditions: JeKo-1, 72 h
# [4] = Antiproliferative activity against human Mino cells after 72 hrs by CellTiter Glo assay; format: functional, cell-based
# [5] = system: JVM-2; assay: Antiproliferative activity against human JVM2 cells after 72 hrs by CellTiter Glo assay; format: functional, cell-based; conditions: JVM-2, 72 h
# [6] = Antiproliferative activity against human SP49 cells after 72 hrs by CellTiter Glo assay; format: functional, cell-based
# [7] = system: Maver1; assay: Antiproliferative activity against human Maver1 cells after 72 hrs by CellTiter Glo assay; format: functional, cell-based; conditions: Maver1, 72 h
# [8] = system: JeKo-1; assay: Induction of apoptosis in human JeKo1 cells assessed as late apoptotic cells at 5 uM after 48 hrs by Annexin V-FITC/propidium iodide double staining based flow cytometry (reference value: 1.9%); format: functional
# [9] = system: JeKo-1; assay: Cell cycle arrest in human JeKo1 cells assessed as accumulation at G0/G1 phase at 0.5 uM after 24 hrs by propidium iodide staining based flow cytometry (reference value: 44.8%); format: functional
# [10] = system: JeKo-1; assay: Induction of apoptosis in human JeKo1 cells assessed as necrotic cells at 1 uM after 48 hrs by Annexin V-FITC/propidium iodide double staining based flow cytometry (reference value: 0.81%); format: functional
# [11] = system: JeKo-1; assay: Cell cycle arrest in human JeKo1 cells assessed as accumulation at G2/M phase at 1 uM after 24 hrs by propidium iodide staining based flow cytometry (reference value: 18.4%); format: functional
# [12] = system: JeKo-1; assay: Induction of apoptosis in human JeKo1 cells assessed as late apoptotic cells at 1 uM after 48 hrs by Annexin V-FITC/propidium iodide double staining based flow cytometry (reference value: 2.06%); format: functional
# [13] = system: JeKo-1; assay: Induction of apoptosis in human JeKo1 cells assessed as viable cells at 1 uM after 48 hrs by Annexin V-FITC/propidium iodide double staining based flow cytometry (reference value: 91.1%); format: functional; conditions: JeKo-1, 48 h, read-out: Activity
# [14] = system: JeKo-1; assay: Induction of apoptosis in human JeKo1 cells assessed as necrotic cells at 1 uM after 72 hrs by Annexin V-FITC/propidium iodide double staining based flow cytometry (reference value: 0.62%); format: functional
# [15] = system: JeKo-1; assay: Induction of apoptosis in human JeKo1 cells assessed as necrotic cells at 1 uM after 48 hrs by Annexin V-FITC/propidium iodide double staining based flow cytometry (reference value: 0.62%); format: functional
# [16] = system: JeKo-1; assay: Induction of apoptosis in human JeKo1 cells assessed as necrotic cells at 0.5 uM after 48 hrs by Annexin V-FITC/propidium iodide double staining based flow cytometry (reference value: 0.81%); format: functional
# [17] = system: JeKo-1; assay: Induction of apoptosis in human JeKo1 cells assessed as viable cells at 1 uM after 24 hrs by Annexin V-FITC/propidium iodide double staining based flow cytometry (reference value: 91.9%); format: functional; conditions: JeKo-1, 24 h, read-out: Activity
# [18] = system: JeKo-1; assay: Cell cycle arrest in human JeKo1 cells assessed as accumulation at S phase at 1 uM after 24 hrs by propidium iodide staining based flow cytometry (reference value: 36.8%); format: functional
# [19] = system: JeKo-1; assay: Cell cycle arrest in human JeKo1 cells assessed as accumulation at G0/G1 phase at 1 uM after 24 hrs by propidium iodide staining based flow cytometry (reference value: 44.8%); format: functional
# [20] = system: JeKo-1; assay: Induction of apoptosis in human JeKo1 cells assessed as early apoptotic cells at 0.5 uM after 48 hrs by Annexin V-FITC/propidium iodide double staining based flow cytometry (reference value: 6.18%); format: functional
# [21] = system: JeKo-1; assay: Induction of apoptosis in human JeKo1 cells assessed as early apoptotic cells at 1 uM after 72 hrs by Annexin V-FITC/propidium iodide double staining based flow cytometry (reference value: 5.42%); format: functional
# [22] = system: JeKo-1; assay: Induction of apoptosis in human JeKo1 cells assessed as viable cells at 5 uM after 48 hrs by Annexin V-FITC/propidium iodide double staining based flow cytometry (reference value: 91.1%); format: functional; conditions: JeKo-1, 48 h, read-out: Activity
# [23] = system: JeKo-1; assay: Induction of apoptosis in human JeKo1 cells assessed as necrotic cells at 1 uM after 24 hrs by Annexin V-FITC/propidium iodide double staining based flow cytometry (reference value: 0.62%); format: functional
# [24] = system: JeKo-1; assay: Induction of apoptosis in human JeKo1 cells assessed as viable cells at 1 uM after 72 hrs by Annexin V-FITC/propidium iodide double staining based flow cytometry (reference value: 91.9%); format: functional; conditions: JeKo-1, 72 h, read-out: Activity
# [25] = system: JeKo-1; assay: Induction of apoptosis in human JeKo1 cells assessed as early apoptotic cells at 1 uM after 48 hrs by Annexin V-FITC/propidium iodide double staining based flow cytometry (reference value: 5.42%); format: functional
# [26] = system: JeKo-1; assay: Induction of apoptosis in human JeKo1 cells assessed as necrotic cells at 5 uM after 48 hrs by Annexin V-FITC/propidium iodide double staining based flow cytometry (reference value: 0.81%); format: functional
# [27] = system: JeKo-1; assay: Induction of apoptosis in human JeKo1 cells assessed as viable cells at 0.5 uM after 48 hrs by Annexin V-FITC/propidium iodide double staining based flow cytometry (reference value: 91.1%); format: functional; conditions: JeKo-1, 48 h, read-out: Activity
# [28] = system: JeKo-1; assay: Induction of apoptosis in human JeKo1 cells assessed as early apoptotic cells at 1 uM after 48 hrs by Annexin V-FITC/propidium iodide double staining based flow cytometry (reference value: 6.18%); format: functional
# [29] = system: JeKo-1; assay: Cell cycle arrest in human JeKo1 cells assessed as accumulation at S phase at 0.5 uM after 24 hrs by propidium iodide staining based flow cytometry (reference value: 36.8%); format: functional
# [30] = system: JeKo-1; assay: Induction of apoptosis in human JeKo1 cells assessed as late apoptotic cells at 1 uM after 24 hrs by Annexin V-FITC/propidium iodide double staining based flow cytometry (reference value: 2.06%); format: functional
# [31] = system: JeKo-1; assay: Induction of apoptosis in human JeKo1 cells assessed as late apoptotic cells at 0.5 uM after 48 hrs by Annexin V-FITC/propidium iodide double staining based flow cytometry (reference value: 1.9%); format: functional
# [32] = system: JeKo-1; assay: Induction of apoptosis in human JeKo1 cells assessed as late apoptotic cells at 1 uM after 48 hrs by Annexin V-FITC/propidium iodide double staining based flow cytometry (reference value: 1.9%); format: functional
# [33] = system: JeKo-1; assay: Induction of apoptosis in human JeKo1 cells assessed as early apoptotic cells at 1 uM after 24 hrs by Annexin V-FITC/propidium iodide double staining based flow cytometry (reference value: 5.42%); format: functional
# [34] = system: JeKo-1; assay: Induction of apoptosis in human JeKo1 cells assessed as early apoptotic cells at 5 uM after 48 hrs by Annexin V-FITC/propidium iodide double staining based flow cytometry (reference value: 6.18%); format: functional
# [35] = system: JeKo-1; assay: Cell cycle arrest in human JeKo1 cells assessed as accumulation at G2/M phase at 0.5 uM after 24 hrs by propidium iodide staining based flow cytometry (reference value: 18.4%); format: functional
# [36] = system: JeKo-1; assay: Induction of apoptosis in human JeKo1 cells assessed as viable cells at 1 uM after 48 hrs by Annexin V-FITC/propidium iodide double staining based flow cytometry (reference value: 91.9%); format: functional; conditions: JeKo-1, 48 h, read-out: Activity
# [37] = system: JeKo-1; assay: Induction of apoptosis in human JeKo1 cells assessed as late apoptotic cells at 1 uM after 72 hrs by Annexin V-FITC/propidium iodide double staining based flow cytometry (reference value: 2.06%); format: functional
# Sequence of RAC-alpha serine/threonine-protein kinase (P31749 whole entry): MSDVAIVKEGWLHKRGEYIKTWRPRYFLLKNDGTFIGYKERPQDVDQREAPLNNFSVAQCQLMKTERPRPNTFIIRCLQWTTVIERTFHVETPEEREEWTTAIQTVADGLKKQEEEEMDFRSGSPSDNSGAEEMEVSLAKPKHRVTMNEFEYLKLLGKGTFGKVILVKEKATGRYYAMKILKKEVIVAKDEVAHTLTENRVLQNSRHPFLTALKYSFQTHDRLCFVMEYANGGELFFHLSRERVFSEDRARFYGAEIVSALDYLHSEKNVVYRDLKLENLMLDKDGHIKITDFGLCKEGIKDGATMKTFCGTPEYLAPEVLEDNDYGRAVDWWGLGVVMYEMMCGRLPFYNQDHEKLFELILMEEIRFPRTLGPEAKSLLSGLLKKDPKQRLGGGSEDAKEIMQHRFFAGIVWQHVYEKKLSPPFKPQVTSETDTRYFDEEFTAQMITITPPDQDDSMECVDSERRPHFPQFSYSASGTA
smiles,measurement,setting,value
CC(C)(C)c1ccc(C2(C(=O)N3CCN(c4ncnc5[nH]ccc45)CC3)CCNCC2)cc1,IC50,[1],> 0.04 µM
O=C(Cc1ccc(Cl)cc1)N1CCN(c2ncnc3[nH]cc(Br)c23)CC1,IC50,[1],0.018 µM
same,IC50,[2],6.8 µM
same,IC50,[3],8.7 µM
same,IC50,[4],18.1 µM
same,IC50,[5],9.9 µM
same,IC50,[6],7.8 µM
same,IC50,[7],18.5 µM
O=C(N1CCN(c2ncnc3[nH]ccc23)CC1)C1(c2ccc(Cl)c(Cl)c2)CCNCC1,IC50,[1],> 0.04 µM
O=C(N1CCN(c2ncnc3[nH]cc(Br)c23)CC1)C1(c2ccccc2)CCNCC1,IC50,[1],0.0203 µM
CCn1c(-c2nonc2N)nc2c(C#CC(C)(C)O)ncc(OC[C@H]3CCCNC3)c21 [GSK-690693],IC50,[2],3.1 µM
same,IC50,[3],3 µM
same,IC50,[4],20.8 µM
same,IC50,[5],1.6 µM
same,IC50,[6],4.8 µM
same,IC50,[7],5.1 µM
O=C(N1CCN(c2ncnc3[nH]cc(Br)c23)CC1)C1(c2ccc(Cl)cc2)CCNCC1,IC50,[1],0.0015 µM
same,IC50,[2],1.7 µM
same,IC50,[3],1.2 µM
same,IC50,[4],3.5 µM
same,IC50,[5],2.3 µM
same,IC50,[6],4.7 µM
same,IC50,[7],1.8 µM
COc1ccc(C2(C(=O)N3CCN(c4ncnc5[nH]cc(Br)c45)CC3)CCNCC2)cc1,IC50,[1],0.0141 µM
O=C(N1CCN(c2ncnc3[nH]cc(Br)c23)CC1)C1(c2cccc(Br)c2)CCNCC1,IC50,[1],0.0076 µM
O=C(N1CCN(c2ncnc3[nH]cc(Cl)c23)CC1)C1(c2cccc(Br)c2)CCNCC1,IC50,[1],0.0056 µM
COc1ccc(C2(C(=O)N3CCN(c4ncnc5[nH]ccc45)CC3)CCNCC2)cc1,IC50,[1],0.0356 µM
O=C(N1CCN(c2ncnc3[nH]ccc23)CC1)C1(c2ccc(Cl)cc2)CCNCC1,IC50,[1],0.0265 µM
O=C(N1CCN(c2ncnc3[nH]cc(Cl)c23)CC1)C1(c2ccc(Cl)c(Cl)c2)CCNCC1,IC50,[1],0.0029 µM
O=C(N1CCN(c2ncnc3[nH]cc(Br)c23)CC1)C1(c2ccc(Cl)c(Cl)c2)CCNCC1,IC50,[1],0.0043 µM
O=C(N1CCN(c2ncnc3[nH]ccc23)CC1)C1(c2ccc(Br)cc2)CCNCC1,IC50,[1],0.0271 µM
O=C(N1CCN(c2ncnc3[nH]cc(Cl)c23)CC1)C1(c2ccc(Cl)cc2)CCNCC1,IC50,[1],0.0019 µM
O=C(N1CCN(c2ncnc3[nH]cc(Cl)c23)CC1)C1(c2ccc(Br)cc2)CCNCC1,Activity,[8],23%
same,Activity,[9],46.1%
same,Activity,[10],0.21%
same,Activity,[11],72.4%
same,IC50,[1],0.0018 µM
same,Activity,[12],16.6%
same,viability at 1 µM,[13],49.1%
same,Activity,[14],0.26%
same,Activity,[15],0.21%
same,Activity,[16],0.7%
same,viability at 1 µM,[17],69.7%
same,Activity,[18],18.8%
same,Activity,[19],8.8%
same,Activity,[20],15.4%
same,Activity,[21],53.5%
same,viability at 5 µM,[22],6.4%
same,Activity,[23],0.091%
same,viability at 1 µM,[24],35.6%
same,Activity,[25],34%
same,Activity,[26],0.43%
same,IC50,[2],0.2 µM
same,IC50,[3],0.3 µM
same,viability at 0.5 µM,[27],75.6%
same,IC50,[4],0.7 µM
same,Activity,[28],34%
same,Activity,[29],21.2%
same,IC50,[5],0.7 µM
same,IC50,[6],1.5 µM
same,Activity,[30],20.4%
same,Activity,[31],8.31%
same,Activity,[32],16.6%
same,IC50,[7],0.3 µM
same,Activity,[33],9.81%
same,Activity,[34],70.1%
same,Activity,[35],32.7%
same,viability at 1 µM,[36],49.1%
same,Activity,[37],10.7%
